These results are taken from paper PMC3988029, “A Trisubstituted Benzimidazole Cell Division Inhibitor with Efficacy against Mycobacterium tuberculosis” (PLoS ONE, 2014).

The test system of test [1] is M. tuberculosis clinical isolates. Put plainly: microbe, parasite or virus in culture. The class given is cell-based. The following applies: Mycobacterium tuberculosis, read-out: MIC against different clinical strains of M. tuberculosis.
The subject of the next test is M. tuberculosis. The class given is cell-based. The note with it: for Enhancement of activity against M. tuberculosis in the presence of the partner drug: checkerboard, SB-P17G-A20 with rifampicin.
For a further test, the system named is M. tuberculosis H37Rv. The class given is cell-based, Mycobacterium tuberculosis. The following applies: 2×10^9 cells plated on 1.6 µg/mL, 10 times MIC.

Values after ≈ are worked out from the molar mass of the structure shown.

Consider `CN(C)c1cc2[nH]c(C3CCCCC3)nc2cc1NC(=O)c1ccc(OC(F)(F)F)cc1` [SB-P17G-A20], for which the MIC in test [1] worked out at 0.16 µg/mL (≈ 0.358 µM). Further, the “Enhancement of activity against M. tuberculosis in the presence of the partner drug” value with M. tuberculosis was 2–4 fold. The ΣFIC in the test on M. tuberculosis (rifampicin in combination with SB-P17G-A20) stood at 0.75. Also, the Spontaneous resistant mutants result in the test on M. tuberculosis H37Rv is on record as “no single resistant colony was obtained”.
As to `CO[C@H]1/C=C/O[C@@]2(C)Oc3c(C)c(O)c4c(O)c(c(/C=N/N5CCN(C)CC5)c(O)c4c3C2=O)NC(=O)/C(C)=C\C=C\[C@H](C)[C@H](O)[C@@H](C)[C@@H](O)[C@@H](C)[C@H](OC(C)=O)[C@@H]1C` [rifampicin, reference compound], the “Enhancement of activity against M. tuberculosis in the presence of the partner drug” value with M. tuberculosis stood at 2 fold.
